Measured values: patent US6491951B1, “Soluble compositions of toremifene” (Orion Corporation, priority 1998, dated 2002)

Experiments:
[1] = Dissolving toremifene base in aqueous compositions with a solubility enhancing acid; assay type: physicochemical
Description: The compositions of the invention can be prepared e.g. by mixing an amount of a solubility enhancing acid of the invention and purified water, adding thereafter toremifene base or a pharmaceutically acceptable salt thereof and agitating the mixture. pH may be adjusted with a water solution of corresponding acid salt or e.g. sodium hydroxide. The solubility enhancing agent is preferably used in molar excess with respect to toremifene or a pharmaceutically acceptable salt thereof. More preferably, the molar excess is at least about 1.5 fold, and most preferably at least about 2 fold, e.g. from about 2 to about 100 fold, typically from about 2 to about 10 fold.
The experiments also compare the effect of solubility enhancing agents of the invention to other acids such as hydrochloric acid, gluconic acid or citric acid.
Glacial acetic acid and purified water were mixed, toremifene base was added and dissolved. pH of the solution was about 4.
Lactic acid (85% water solution) and purified water were mixed, toremifene base was added and dissolved.
Formic acid and purified water were mixed, toremifene base was added and dissolved.
Toremifene base was dissolved in methanesulfonic acid, then purified water was added.
Lactic acid (85% water solution) and purified water were mixed, toremifene base was added and dissolved. pH was adjusted to about 5 by sodium lactate (50% water solution).
Manufactured as above but pH was adjusted to about 5 with sodium hydroxide.
Hydrochloric acid and purified water were mixed, toremifene base was added. Toremifene was not dissolved.
Sodium gluconate, concentrated hydrochloric acid and purified water were mixed, toremifene base was added. Toremifene was not dissolved.
Toremifene base and 30% water solution of citric acid were mixed together and ethanol was added gradually. Toremifene was not dissolved.

[2] = pKa value of toremifene; assay type: physicochemical
[3] = background statement; cited from earlier work
[4] = Water solubility of toremifene and its salts; assay type: physicochemical; settings: compared with toremifene citrate

Dissolution of toremifene base ([1]; Example 1: 18.4% toremifene base, glacial acetic acid 9.0%, purified water 72.6%, pH about 4)	Toremifene base content of the aqueous solution (by weight of the composition) ([1]; Example 1: glacial acetic acid 9.0%, purified water 72.6%, pH of the solution about 4)	Dissolution of toremifene base ([1]; Example 2: 52.6% toremifene base, lactic acid (85%) 24.0%, purified water 23.4%)	Toremifene base content of the aqueous solution (by weight of the composition) ([1]; Example 2: lactic acid (85%) 24.0%, purified water 23.4%)	Dissolution of toremifene base ([1]; Example 3: 8.2% toremifene base, formic acid 1.6%, purified water 90.2%)	Toremifene base content of the aqueous solution (by weight of the composition) ([1]; Example 3: formic acid 1.6%, purified water 90.2%)	Dissolution of toremifene base ([1]; Example 4: 16.7% toremifene base dissolved in methanesulfonic acid 66.6%, then purified water 16.7% added)	Toremifene base content of the aqueous solution (by weight of the composition) ([1]; Example 4: methanesulfonic acid 66.6%, purified water 16.7%)	Dissolution of toremifene base ([1]; Example 5: 3.7% toremifene base, lactic acid (85%) 1.7%, sodium lactate (50%) 4.4%, purified water 90.2%, pH about 5)	Toremifene base content of the aqueous solution (by weight of the composition) ([1]; Example 5: lactic acid (85%) 1.7%, sodium lactate (50%) 4.4%, purified water 90.2%, pH about 5)	Toremifene base content of the aqueous solution (by weight of the composition) ([1]; Example 6: lactic acid (85%) 18.2%, sodium hydroxide 2 N 27.3%, purified water 18.2%, pH about 5)	Dissolution of toremifene base ([1]; Example 7 (reference): 9.1% toremifene base, hydrochloric acid 1 N 31.8%, purified water 59.1%)	Dissolution of toremifene base ([1]; Example 8 (reference): 1.0% toremifene base, sodium gluconate 1.0%, concentrated hydrochloric acid 1.0%, purified water 97.0%)	Dissolution of toremifene base ([1]; Example 9 (reference): 1.0% toremifene base, citric acid (30%) 10.3%, ethanol 88.7%)	Concentration of toremifene base solutions that can be prepared ([1]; two fold molar excess of lactic acid and purified water)	Concentration of toremifene base solutions that can be prepared ([1]; two fold molar excess of lactic acid, pH adjusted to about 5 with sodium hydroxide)	pKa [2]	Molecule	Solubility in water [3]	Solubility in distilled water relative to toremifene citrate [4]
dissolved	18.4%	dissolved	52.6%	dissolved	8.2%	A clear solution was obtained	16.7%	dissolved	3.7%	36.3%	not dissolved	not dissolved	not dissolved	about 50 w-%	about 36 w-%	8	CN(C)CCOc1ccc(/C(=C(/CCCl)c2ccccc2)c2ccccc2)cc1 [Toremifene base, toremifene]	poorly soluble in water	–
–	–	–	–	–	–	–	–	–	–	–	–	–	–	–	–	–	toremifene mesylate	–	about 70 times higher
